From ChEMBL document CHEMBL4130540, “Multifunctional iminochromene-2H-carboxamide derivatives containing different aminomethylene triazole with BACE1 inhibitory, neuroprotective and metal chelating properties targeting Alzheimer's disease” (Eur J Med Chem, 2017)
The source made the active and inactive calls. No cut-off for these calls is given here.

Assays:
PC-12 [1] = assay: Neuroprotection against amyloid beta (25 to 35)-induced cell death in rat PC12 cells preincubated for 3 hrs followed by amyloid beta addition measured after 24 hrs by MTT assay; format: functional, cell-based
Beta-secretase 1 [2] = target: T1, Beta-secretase 1 (Homo sapiens, UniProt P56817); assay: Inhibition of recombinant human BACE1 (1 to 460 residues) expressed in baculovirus infected insect cells using Rh-EVNLDAEFK-Quencher as substrate incubated under dark condition for 90 mins by FRET assay
T1 sequence (P56817 whole entry, the tested form may be a part): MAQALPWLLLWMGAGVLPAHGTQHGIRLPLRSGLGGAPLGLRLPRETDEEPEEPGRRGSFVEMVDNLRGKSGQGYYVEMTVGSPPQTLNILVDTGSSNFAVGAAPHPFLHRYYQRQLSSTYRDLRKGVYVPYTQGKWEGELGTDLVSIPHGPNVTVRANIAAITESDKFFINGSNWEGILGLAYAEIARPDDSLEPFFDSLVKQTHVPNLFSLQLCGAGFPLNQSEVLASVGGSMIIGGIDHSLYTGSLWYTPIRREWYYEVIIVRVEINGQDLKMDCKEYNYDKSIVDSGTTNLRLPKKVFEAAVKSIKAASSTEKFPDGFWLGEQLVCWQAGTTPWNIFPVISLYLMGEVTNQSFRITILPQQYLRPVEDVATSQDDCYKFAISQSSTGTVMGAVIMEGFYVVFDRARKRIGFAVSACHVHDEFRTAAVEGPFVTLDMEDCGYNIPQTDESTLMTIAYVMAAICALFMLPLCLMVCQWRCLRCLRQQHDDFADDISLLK

Beta-secretase 1 [3] = target: T1, Beta-secretase 1; assay: Inhibition of recombinant human BACE1 (1 to 460 residues) expressed in baculovirus infected insect cells at 50 uM using Rh-EVNLDAEFK-Quencher as substrate incubated under dark condition for 90 mins by FRET assay relative to control
Beta-secretase 1 [4] = target: T1, Beta-secretase 1; assay: Inhibition of recombinant human BACE1 (1 to 460 residues) expressed in baculovirus infected insect cells at 10 uM using Rh-EVNLDAEFK-Quencher as substrate incubated under dark condition for 90 mins by FRET assay relative to control
[5] = Metal chelating activity assessed as compound-Fe2+ complex formation at 400 uM preincubated with ferrous ion FeCl2 followed by ferrozine addition measured after 10 mins by spectroscopic method
PC-12 [6] = assay: Neuroprotection against amyloid beta (25 to 35)-induced cell death in rat PC12 cells at 10 uM preincubated for 3 hrs followed by amyloid beta addition measured after 24 hrs by MTT assay relative to control; format: functional
PC-12 [7] = assay: Cytotoxicity against rat PC12 cells up to 100 uM after 24 hrs by MTT assay; format: cell-based; details: pc-12, 24 h
PC-12 [8] = assay: Neuroprotection against amyloid beta (25 to 35)-induced cell death in rat PC12 cells at 25 uM preincubated for 3 hrs followed by amyloid beta addition measured after 24 hrs by MTT assay relative to control; format: functional
[9] = Metal chelating activity assessed as compound-Fe2+ complex formation at 20 uM after 30 mins by UV-Visible spectroscopic method
[10] = Metal chelating activity assessed as mole fraction of compound required to show 3:2 stoichiometry for Fe2+-compound complex at 20 uM after 30 min by UV-Visible spectroscopic method
PC-12 [11] = assay: Neuroprotection against amyloid beta (25 to 35)-induced cell death in rat PC12 cells at 15 uM preincubated for 3 hrs followed by amyloid beta addition measured after 24 hrs by MTT assay relative to control; format: functional

SMILES	IC50 (PC-12 [1]) [µM]	IC50 (Beta-secretase 1 [2]) [µM]	inhibition (Beta-secretase 1 [3]) [%]	inhibition (Beta-secretase 1 [4]) [%]	Activity [5] [%]	Activity (PC-12 [6]) [%]	Activity (PC-12 [7])	Activity (PC-12 [8]) [%]	Activity [9]	Activity [10] [molar ratio]	Activity (PC-12 [11]) [%]
O=C(O)/C=C/c1ccc(O)c(O)c1 [CAFFEIC ACID]	75.8	–	–	–	–	–	–	–	–	–	–
N=c1oc2ccccc2cc1C(=O)Nc1cc(Br)ccc1NCc1cn(CCCCN2C(=O)c3ccccc3C2=O)nn1	6.8	6.8	77.6	55.7	12.8	67.8	Non-Toxic	–	–	–	–
N=c1oc2ccccc2cc1C(=O)Nc1cc(Br)ccc1NCc1cn(Cc2ccc(Cl)c(Cl)c2)nn1	90.5	7.5	60.8	52	–	21.8	Non-Toxic	49.8	–	–	–
N=c1oc2ccccc2cc1C(=O)Nc1cc(Br)ccc1NCc1cn(Cc2ccc(F)cc2)nn1	–	–	45.9	21.3	–	13.1	Non-Toxic	22.2	–	–	–
COc1ccc(Cn2cc(CNc3ccc(Br)cc3NC(=O)c3cc4ccccc4oc3=N)nn2)cc1	–	–	34.5	10	–	28.4	Non-Toxic	22	–	–	–
N=c1oc2ccccc2cc1C(=O)Nc1cc(Br)ccc1NCc1cn(Cc2ccc(Br)cc2)nn1	37.8	6.4	100	72.3	45.2	16.4	Non-Toxic	37.5	Active	1.5	–
O=C(O)CN(CCN(CC(=O)O)CC(=O)O)CC(=O)O	–	–	–	–	96.4	–	–	–	–	–	–
N=c1oc2ccccc2cc1C(=O)Nc1cc(Br)ccc1NCc1cn(CCCN2C(=O)c3ccccc3C2=O)nn1	7.9	2.2	84.2	83.5	10.2	78.8	Non-Toxic	100	–	–	–
Cc1ccc(Cn2cc(CNc3ccc(Br)cc3NC(=O)c3cc4ccccc4oc3=N)nn2)cc1	–	–	52.4	38.3	–	–	Non-Toxic	19.2	–	–	83.8
N=c1oc2ccccc2cc1C(=O)Nc1cc(Br)ccc1NCc1cn(Cc2ccccc2)nn1	–	–	25.2	12.1	–	–	Non-Toxic	–	–	–	–
N=c1oc2ccccc2cc1C(=O)Nc1cc(Br)ccc1NCc1cn(Cc2cccc(Cl)c2Cl)nn1	18.9	15.6	62	47.8	–	23.6	Non-Toxic	57.2	–	–	–
